From article PMC7545187, “Endocrine disruption of vitamin D activity by perfluoro-octanoic acid (PFOA)” (Scientific Reports, 2020) come the findings set out here.

This experiment concerns the target T1, Vitamin D receptor (VDR) (Homo sapiens, UniProt P11473).
T1 sequence (P11473 1-427): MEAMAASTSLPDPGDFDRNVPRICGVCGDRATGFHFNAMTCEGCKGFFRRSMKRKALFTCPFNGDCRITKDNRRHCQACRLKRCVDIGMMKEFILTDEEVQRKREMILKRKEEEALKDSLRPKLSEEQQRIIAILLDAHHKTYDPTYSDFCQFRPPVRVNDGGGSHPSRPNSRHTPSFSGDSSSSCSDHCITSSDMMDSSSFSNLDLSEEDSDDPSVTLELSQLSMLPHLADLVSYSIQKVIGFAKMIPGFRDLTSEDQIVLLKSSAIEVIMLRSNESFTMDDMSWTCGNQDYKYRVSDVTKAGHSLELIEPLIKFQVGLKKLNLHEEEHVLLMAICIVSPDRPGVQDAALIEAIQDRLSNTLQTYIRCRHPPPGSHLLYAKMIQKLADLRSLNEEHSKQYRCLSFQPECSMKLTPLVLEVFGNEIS
Put plainly: SPR competition: PFOA ([…]) with […](OH)D over immobilized VDR; […] decrease, no Kd for PFOA. It is filed as binding.

In the case of `O=C(O)C(F)(F)C(F)(F)C(F)(F)C(F)(F)C(F)(F)C(F)(F)C(F)(F)F` [PFOA, perfluorooctanoic acid], the “% decrease” value turned out to be 10 % decrease.
